The record followed here is patent US11584765B2 (priority 2017, dated 2023).

Structures can show the parent of a compound that is named as a salt.

For the assay, the system named is C57BL/6 mice. As to the kind of experiment: animal or person. The class given is in vivo. To be noted: Mus musculus, sc, 0.5 h, s.c. administration, 30 min, 55° C. water, read-out: ED50 (mg/kg) at 30 min on C57BL/6 mice in Warm-water Tail-flick Test.
Turning to `Cn1cc(CN2CCC(CCc3ccccc3)(c3ccccn3)CC2)cn1` [Compound 417, 2-(1-((1-methyl-1H-pyrazol-4-yl)methyl)-4-phenethylpiperidin-4-yl)pyridine], the ED50 was below 10 mg/kg.

For the compound `Cc1ccc(CN2[C@@H](C)CC(CCc3ccc(F)cc3)(c3ccccn3)C[C@@H]2C)cn1` (stereo partly drawn) [Compound 418, 5-(((2S,6S)-4-(4-fluorophenethyl)-2,6-dimethyl-4-(pyridin-2-yl)piperidin-1-yl)methyl)-2-methylpyridine], the ED50 is above 10 mg/kg.

Regarding `CCOC[C@@]1(COc2ccccc2)CCN(Cc2ccc(C)nc2)C1` [Compound 419, (R)-5-((3-(ethoxymethyl)-3-(phenoxy-methyl)pyrrolidin-1-yl)methyl)-2-methylpyridine], the ED50 is below 10 mg/kg.

With `CCOC[C@@]1(CCc2ccccn2)CCN(Cc2cccnc2)C1` [Compound 420], the ED50 is below 10 mg/kg.

In the case of `CCOC[C@@]1(CN(C)c2ccccc2)CCN(Cc2ccc(C)nc2)C1` [Compound 421, (S)-N-((3-(ethoxymethyl)-1-((6-methylpyridin-3-yl)methyl)pyrrolidin-3-yl)methyl)-N-methylaniline], the ED50 is below 10 mg/kg.

Consider `CCOC[C@@]1(COc2ccc(F)cc2)CCN(Cc2ccc(C)nc2)C1` [Compound 426, (R)-5-((3-(ethoxymethyl)-3-((4-fluoro-phenoxy)methyl)pyrrolidin-1-yl)methyl)-2-methylpyridine], for which the ED50 was below 10 mg/kg.

As for `CCOCC1(CCC2CC2)CCN(Cc2ccc(C)nc2)C1` (stereo not shown) [Compound 427, 5-((3-(2-cyclopropylethyl)-3-(ethoxy-methyl)pyrrolidin-1-yl)methyl)-2-methylpyridine], the ED50 was below 10 mg/kg.

On to `CCOC[C@@]1(CCc2cccs2)CCN(Cc2cccnc2C)C1` [Compound 428, (S)-3-((3-(ethoxymethyl)-3-(2-(thiophen-2-yl)ethyl)pyrrolidin-1-yl)methyl)-2-methylpyridine], for which the ED50 was below 10 mg/kg.

On to `CCOCC1(CCc2cccs2)CN(Cc2ccc(C)nc2)C1` [Compound 429, 5-((3-(ethoxymethyl)-3-(2-(thiophen-2-yl)ethyl)azetidin-1-yl)methyl)-2-methylpyridine], for which the ED50 is below 10 mg/kg.

`CCOC[C@@]1(CCc2cccs2)CCN(Cc2cnn(C)c2)C1.Cl` [Compound 430, (S)-4-((3-(ethoxymethyl)-3-(2-(thiophen-2-yl)ethyl)pyrrolidin-1-yl)methyl)-1-methyl-1H-pyrazole HCl]: the ED50 is below 10 mg/kg.

Turning to `CCOCC1(CCC2CC2)CCN(C(C)(C)c2ccc(C)nc2)C1` (stereo not shown) [Compound 431, 5-(2-(3-(2-cyclopropylethyl)-3-(ethoxy-methyl)pyrrolidin-1-yl)propan-2-yl)-2-methylpyridine], the ED50 is below 10 mg/kg.

Take `Cc1ccc(CN2CCC(CCc3ccccc3)(c3ccccn3)CC2)cn1` [Compound 432, 2-methyl-5-((4-phenethyl-4-(pyridin-2-yl)piperidin-1-yl)methyl)pyridine]: the ED50 is below 10 mg/kg.

On to `CC(C)(c1cccnc1)N1CCC(CCc2ccccc2)(c2ccccn2)CC1` [Compound 433, 2-(4-phenethyl-1-(2-(pyridin-3-yl)propan-2-yl)piperidin-4-yl)pyridine], for which the ED50 was below 10 mg/kg.

Consider `CCOC[C@@]1(CCc2ccc(F)cc2)CCN(C2(c3ccc(C)nc3)CC2)C1` [Compound 434, (S)-5-(1-(3-(ethoxymethyl)-3-(4-fluoro-phenethyl)pyrrolidin-1-yl)cyclopropyl)-2-methylpyridine], for which the ED50 is below 10 mg/kg.

As for `CCOC[C@@]1(CCc2ccc(F)s2)CCN(C2(c3ccc(C)nc3)CC2)C1` [Compound 435], the ED50 is below 10 mg/kg.

In the case of `CCOC[C@@]1(CCc2ccc(F)cc2)CCN(C2(c3cnc(C)cc3CC)CC2)C1` [Compound 436, (S)-5-(1-(3-(ethoxymethyl)-3-(4-fluoro-phenethyl)pyrrolidin-1-yl)cyclopropyl)-4-ethyl-2-methylpyridine], the ED50 was below 10 mg/kg.

As to `CCOC[C@@]1(CCc2ccc(C)cc2)CCN(Cc2cccnc2)C1` [Compound 437, (S)-3-((3-(ethoxymethyl)-3-(4-methyl-phenethyl)pyrrolidin-1-yl)methyl)pyridine], the ED50 is below 10 mg/kg.

As for `CCOCC1(CCc2ccccc2)CCN(N(C)c2ccc(C)nc2)C1` (stereo not shown) [Compound 438, N-(3-(ethoxymethyl)-3-phenethylpyrrolidin-1-yl)-N,6-dimethylpyridin-3-amine], the ED50 is above 10 mg/kg.

Turning to `CCOC[C@@]1(CCc2ccc(F)cn2)CCN(Cc2cnc3ccccc3c2)C1` [Compound 439, (S)-3-((3-(ethoxymethyl)-3-(2-(5-fluoropyridin-2-yl)ethyl)pyrrolidin-1-yl)methyl)quinoline], the ED50 was below 10 mg/kg.

On to `CCOC[C@@]1(CCc2ccccc2F)CCN(Cc2cccnc2)C1` [Compound 440], for which the ED50 is below 10 mg/kg.

Regarding `CCOC[C@@]1(CCc2cccc(F)c2)CCN(Cc2cccnc2)C1` [Compound 441, (S)-3-((3-(ethoxymethyl)-3-(3-fluoro-phenethyl)pyrrolidin-1-yl)methyl)pyridine], the ED50 was below 10 mg/kg.

Take `CCOC[C@@]1(CNc2ccccc2)CCN(Cc2ccc(C)nc2)C1.Cl` [Compound 442, (R)-N-((3-(ethoxymethyl)-1-((6-methylpyridin-3-yl)methyl)pyrrolidin-3-yl)methyl)aniline HCl]: the ED50 is below 10 mg/kg.

Regarding `CCOC[C@@]1(CN(C)c2ccccc2)CCN(Cc2cccnc2)C1.Cl` [Compound 443, (S)-N-((3-(ethoxymethyl)-l-(pyridin-3-ylmethyl)pyrrolidin-3-yl)methyl)-N-methylaniline HCl], the ED50 is below 10 mg/kg.

Turning to `CCOC[C@@]1(COc2ccccc2)CCN(Cc2cccnc2)C1.Cl` [Compound 444, (R)-3-((3-(ethoxymethyl)-3-(phenoxy-methyl)pyrrolidin-1-yl)methyl)pyridine HCl], the ED50 was below 10 mg/kg.

In the case of `CCOC[C@@]1(CCc2nccn2C)CCN(C(C)(C)c2ccc(C)nc2)C1.Cl` [Compound 445, (S)-5-(2-(3-(ethoxymethyl)-3-(2-(1-methyl-1H-imidazol-2-yl)ethyl)pyrrolidin-1-yl)propan-2-yl)-2-methylpyridine HCl], the ED50 is below 10 mg/kg.

For the compound `CCOC[C@@]1(CCc2nccn2C)CCN(C(C)c2ccc(C)nc2)C1.Cl` (stereo partly drawn) [Compound 446, 5-(1-((S)-3-(ethoxymethyl)-3-(2-(1-methyl-1H-imidazol-2-yl)ethyl)pyrrolidin-1-yl)ethyl)-2-methylpyridine HCl], the ED50 was below 10 mg/kg.

`CC(c1cccnc1)N1CCC(CCc2cccs2)(c2ccccn2)CC1.Cl` (stereo not shown) [Compound 447, 2-(1-(1-(pyridin-3-yl)ethyl)-4-(2-(thiophen-2-yl)ethyl)piperidin-4-yl)pyridine HCl]: the ED50 is below 10 mg/kg.

Turning to `Cl.Cn1cc(CN2CCC(CCc3cccs3)(c3ccccn3)CC2)cn1` [Compound 448], the ED50 is below 10 mg/kg.

`CCOC[C@@]1(CCc2nc(C)cs2)CCN(C(C)(C)c2ccc(C)nc2)C1.Cl` [Compound 449, (S)-2-(2-(3-(ethoxymethyl)-1-(2-(6-methylpyridin-3-yl)propan-2-yl)pyrrolidin-3-yl)ethyl)-4-methylthiazole HCl]: the ED50 is below 10 mg/kg.

On to `CCOC[C@@]1(CCc2nc(C)c(C)s2)CCN(C(C)(C)c2ccc(C)nc2)C1.Cl` [Compound 450, (S)-2-(2-(3-(ethoxymethyl)-1-(2-(6-methylpyridin-3-yl)propan-2-yl)pyrrolidin-3-yl)ethyl)-4,5-dimethylthiazole HCl], for which the ED50 is below 10 mg/kg.

Turning to `CCOCC1(CCc2cccs2)CCCN1Cc1cccnc1.Cl` (stereo not shown) [Compound 451, 3-((2-(ethoxymethyl)-2-(2-(thiophen-2-yl)ethyl)pyrrolidin-1-yl)methyl)pyridine HCl], the ED50 is below 10 mg/kg.

Consider `CCOC[C@@]1(CCc2cccs2)CCN(Cc2ccc(OC)nc2)C1.Cl` [Compound 452, (S)-5-((3-(ethoxymethyl)-3-(2-(thiophen-2-yl)ethyl)pyrrolidin-1-yl)methyl)-2-methoxypyridine HCl], for which the ED50 is below 10 mg/kg.

For `CCOC[C@@]1(CCc2cccs2)CCN(C(C)(C)c2ccc(OC)nc2)C1.Cl` [Compound 453, (S)-5-(2-(3-(ethoxymethyl)-3-(2-(thiophen-2-yl)ethyl)pyrrolidin-1-yl)propan-2-yl)-2-methoxypyridine HCl], the ED50 was below 10 mg/kg.

For the compound `CCOC[C@@]1(CCc2cccs2)CCN(Cc2ccc(=O)[nH]c2)C1.Cl` [Compound 454, (S)-5-((3-(ethoxymethyl)-3-(2-(thiophen-2-yl)ethyl)pyrrolidin-1-yl)methyl)pyridin-2(1H)-one HCl], the ED50 was above 10 mg/kg.

In the case of `CCOCC1(CCC2CCCS2)CCCN1Cc1cccnc1.Cl` (stereo not shown) [Compound 455, 3-((2-(ethoxymethyl)-2-(2-(tetrahydrothiophen-2-yl)ethyl)pyrrolidin-1-yl)methyl)pyridine HCl], the ED50 was above 10 mg/kg.

For the compound `CCOC[C@@]1(CCc2nc3ncncc3[nH]2)CCN(C(C)(C)c2ccc(C)nc2)C1` [Compound 456, (S)-8-(2-(3-(ethoxymethyl)-1-(2-(6-methylpyridin-3-yl)propan-2-yl)pyrrolidin-3-yl)ethyl)-7H-purine citrate], the ED50 is below 10 mg/kg.

As to `CCOC[C@@]1(CCC2CC2)CCN(C(C)(C)c2ccc(C)nc2)C1` [Compound 457, (S)-5-(2-(3-(2-cyclopropylethyl)-3-(ethoxy-methyl)pyrrolidin-1-yl)propan-2-yl)-2-methylpyridine citrate], the ED50 is below 10 mg/kg.

As for `CCOC[C@@]1(COCc2ccccc2)CCN(C(C)(C)c2ccc(C)nc2)C1.Cl` [Compound 458, (R)-5-(2-(3-((benzyloxy)methyl)-3-(ethoxy-methyl)pyrrolidin-1-yl)propan-2-yl)-2-methylpyridine HCl], the ED50 is below 10 mg/kg.

As to `CCCCC[C@]1(COCC)CCN(C(C)(C)c2ccc(C)nc2)C1.Cl` [Compound 459, (S)-5-(2-(3-(ethoxymethyl)-3-pentylpyrrolidin-1-yl)propan-2-yl)-2-methylpyridine HCl], the ED50 was below 10 mg/kg.

On to `CCOCC1CCN(C(C)(C)c2ccc(C)nc2)C1.Cl` (stereo not shown) [Compound 460, 5-(2-(3-(ethoxy-methyl)pyrrolidin-1-yl)propan-2-yl)-2-methylpyridine HCl], for which the ED50 was below 10 mg/kg.
